{
  "source": "patent US20110166038A1",
  "about": "“SCREENING METHODS FOR HEAT-SHOCK RESPONSE MODULATORS” (SCREENING METHODS FOR HEAT-SHOCK RESPONSE MODULATIORS, priority 2008, published 2011)",
  "format_in_all_cases": "cell-based",
  "key": {"HSP70 [1]": {"tested_on": "HSP70", "assay": "MaCRA HCS HSP70 granule assay, heat shock 41° C.", "details": "Homo sapiens, HeLa, read-out: EC50 of HSP granule area", "method": "(§1) This experiment was directed to developing of a HSF1/HSP70 high-content screening (HCS) assay for screening HSF1 activators. HeLa cells were pretreated with a compound (celastrol) one hour before heat shock at 41° C. for two hours. The dilution in Dulbecco's Modified Eagle's Medium (DMEM) was 200-fold resulting in a final concentration of 30 μM for screening. A custom made aluminum plate was designed for better heat transduction and to achieve a constant temperature with minimal variability for the 96-well plate. The aluminum plate was placed inside a 41° C. incubator for one day prior to the experiment.\nImmunocytochemical staining for HSF1 and HSP70 in HeLa cells was performed as in Zhang et al., Biomol Screen., 13(6):538-543, 2008. Image acquisition was performed using an INcell 1000 (GE Healthcare, Piscataway, N.J.) integrated with a Twister II (Caliper Life Sciences, Hopkinton, Mass.) for automated plate delivery. […]\nA Multi Target Analysis Module (MTA) module from Workstation software (GE Healthcare) provides a high-speed measurement of nuclear granules including granule count, granule area, granule intensity and nuclear intensity CV (CV of pixel intensity in the nucleus). FIGS. 2A and 2B provide a quantification of HSF1 variables via granule count and nuclear intensity CV. FIGS. 2C and 2D adopted granule count and granule area for the quantification of HSP70 granules. […]"}, "HSF1 [2]": {"tested_on": "HSF1", "assay": "MaCRA HCS HSF1 granule assay, heat shock 41° C.", "method": "as §1\nImmunocytochemical staining for HSF1 and HSP70 in HeLa cells was performed as in Zhang et al., Biomol Screen., 13(6):538-543, 2008. Image acquisition was performed using an INcell 1000 (GE Healthcare, Piscataway, N.J.) integrated with a Twister II (Caliper Life Sciences, Hopkinton, Mass.) for automated plate delivery. Image analysis was carried out using a Multi Target Analysis module from Workstation 3.6. Algorithms for HSF1/HSP70 granule count, granule area and nuclear intensity CV were established according to assay conditions and manufacture instructions. EC50 values and curve fitting were performed using a Prism 4.0 (GraphPad Software, San Diego, Calif.) with nonlinear regression analysis.\nA Multi Target Analysis Module (MTA) module from Workstation software (GE Healthcare) provides a high-speed measurement of nuclear granules including granule count, granule area, granule intensity and nuclear intensity CV (CV of pixel intensity in the nucleus). FIGS. 2A and 2B provide a quantification of HSF1 variables via granule count and nuclear intensity CV. FIGS. 2C and 2D adopted granule count and granule area for the quantification of HSP70 granules.\nBy comparison, DMSO-treated cells contain, on average, 2.46±0.22 granules. To achieve a relatively low background, HeLa cells that contained more than 5 HSF1 granules were designated as “HSF1 granule positive cells”. The thresholds for HSF1 nuclear intensity CV, HSP70 granule count and HSP70 granule area were also chosen with gating values equivalent to the average of DMSO treated samples plus 2 or more standard deviations (FIG. 2B-2D).\nExperiment 3: HeLa cells were seeded in Costar 96-well assay plates (Costar 3904) at a density of 8,000 cells/well approximately 16 to 24 hours before compound treatment. Subsequently, the cells were treated with DMSO. […] Heat shock was carried out at 41° C. for 2 hours with no recovery time. Immediately following heat shock, 50 μL of 16% para-formaldehyde was mixed with the culture medium (total volume at 150 μL) to a final concentration of 4%. The plates were incubated at room temperature for 30 minutes before washing with PBS. […]"}, "SH-SY5Y cells": {"tested_on": "SH-SY5Y cells", "assay": "Rotenone model, MTS readout", "details": "100 nM for 24 hours", "description": "This experiment tests the hits from the MaCRA HSF1 activator screening in a secondary rotenone assay for cytoprotective effects of test compounds on SHSY5Y cells. The rotenone model of Parkinson's disease is an in vitro system for study of protein aggregation induced cytotoxicity. […] See Greenamyre et al., Parkinsonism Relat. Disord., Suppl 2:S59-S64 (2003). Therefore, this in vitro system may be adopted to evaluate cytoprotective effects of the HSF1/HSP70 MaCRA screening hits as carried out essentially as described in Sherer et al., J. Neuroscience, 23(34):10756-10764, 2003. […] In summary, the small molecule HSF1/HSP70 amplifier identified from our HSF1/HSP70 screening can rescue cells from two different stress conditions with cytoprotective benefits, possibly through the mechanism of HSF1/HSP70 amplification."}, "HSP70 [3]": {"tested_on": "HSP70", "assay": "HSP70 inhibitor assay, heat shock 43° C.", "details": "HeLa, 1 μM triptolide or 10 μM CYT compound, 43° C. 1-4 hours, recovery 0-7 hours", "method": "(§2) Experiment 2: HeLa cells were treated with 1 μM of Triptolide and 10 μM of CYT975 (▪), CYT1563 (▴) and CYT1590 ([…]) 30 minutes before heat shock. The cells subsequently underwent heat shock at 43° C. for 1 hour with 0, 5 or 7 hours recovery time with total HSP70 nuclear and cell intensity as the threshold.\nas §2, with “Experiment 3:” for “Experiment 2:”, “for 2 hours” for “for 1 hour”, “0, 4” for “0, 5”, “or 6” for “or 7”\nas §2, with “4:” for “2:”, “3 hours” for “1 hour”, “0, 3 or” for “0,”, “5” for “5 or 7”, “threshold. […]” for “threshold.”\nExperiment 3: HSP70 expression induced by Triptolide (▪), CYT1563 (▴) and DMSO (0, control) was evaluated in a 96-well plate format (See Example 4) following heat shock at 43° C. for 2 hours with 4 hours recovery time. […]\nExperiment 4: HSP70 expression induced by Triptolide (▪), CYT1563 (▴) and DMSO (♦, control) was evaluated in a 96-well plate format (See Example 4) following heat shock at 43° C. for 4 hours with 4 hours recovery time. […]"}, "HSF1 [4]": {"tested_on": "HSF1", "assay": "HSF1 granule inhibitor assay, heat shock 43° C.", "details": "HeLa, 10 nM-10 μM, 43° C. 1-4 hours, threshold 5 granules/nucleus", "method": "Experiment 1: HeLa cells were treated with four different […] (10 nM, 100 nM, 1 μM and 10 μM) of triptolide and subsequently underwent heat shock at 43° C. for 1 to 4 hours. […] HSF1 granule count was measured with 5 granules/nucleus used as the threshold. Similar assay conditions were used to test the effect of various compounds selected using MaCRA methods as described herein.\nExperiment 1: HSF1 granule formation induced by Triptolide (▪), CYT1563 (▴) and DMSO (♦, control) was evaluated in a 96-well plate format (See Example 4) following heat shock at 43° C. for 2 hours with no recovery time. FIG. 26A illustrates the HSF1 inhibition.\nExperiment 2: HSF1 granule formation induced by Triptolide (▪), CYT1563 (▴) and DMSO (♦, control) was evaluated in a 96-well plate format (See Example 4) following heat shock at 43° C. for 4 hours with 4 hours recovery time. FIG. 26B illustrates the HSF1 inhibition.\nHeLa cells were treated with DMSO (♦) or CYT 1563 (10 μM) (▪) and subsequently heat shocked at 43° C. for 2 h with no recovery time using HSF1 granule count in a 384-well plate format (See Example 10). Results including the Z′ values and Signal/Background (S/B) ratio are illustrated in FIG. 27."}},
  "note": "pEC50: −log10 of the molar value.",
  "data": [
    {"smiles": "CC1=C(O)C(=O)C=C2C1=CC=C1[C@@]2(C)CC[C@@]2(C)[C@@H]3C[C@](C)(C(=O)O)CC[C@]3(C)CC[C@]12C", "note": "[celastrol]", "values": [
      {"measurement": "pEC50", "setting": "HSP70 [1]", "result": 6.19},
      {"measurement": "HSF1 granule positive cells", "setting": "HSF1 [2]; 96-well, 2 μM, 41° C. 2 h, HSF1 granule count", "result": 59.36, "unit": "%"},
      {"measurement": "average HSF1 stress granules per nucleus", "setting": "HSF1 [2]; HeLa, 2 μM, 41° C. for two hours", "result": "5.34±0.72", "unit": "granules per nucleus"},
      {"measurement": "HSF1 stress granules per nucleus, positive control at 43° C.", "setting": "HSF1 [2]; HeLa, heat shock 43° C.", "result": "about 6.56"},
      {"measurement": "pEC50", "setting": "HSF1 [2]; Homo sapiens, HeLa, read-out: EC50 of HSF1 intensity CV", "result": 5.88}
    ]},
    {"smiles": "C=C(C)[C@H]1Cc2c(ccc3c2O[C@@H]2COc4cc(OC)c(OC)cc4[C@@H]2C3=O)O1", "note": "[rotenone]", "values": [
      {"measurement": "SH-SY5Y cells killed", "setting": "SH-SY5Y cells", "result": "more than 42%"}
    ]},
    {"smiles": "CC(C)[C@]12O[C@H]1[C@@H]1O[C@]13[C@]1(O[C@H]1C[C@H]1C4=C(CC[C@@]13C)C(=O)OC4)[C@@H]2O", "note": "[triptolide]", "values": [
      {"measurement": "HSP70 expression after heat shock", "setting": "HSP70 [3]", "result": "reduction of HSP70 expression"},
      {"measurement": "inhibition of HSF1 granule formation", "setting": "HSF1 [4]", "result": "dose dependent inhibition of HSF1 granule formation"}
    ]}
  ]
}
